This is an account of results in article PMC12446565, “Perinatal Maturation of Drug Transporters and Claudin‐5 at the Blood–Brain Barrier” (CNS Neuroscience & Therapeutics, 2025).

Molecules are shown by their SMILES. Like-named read-outs stand apart in the source and are kept apart here.

Series [1] in a line: BBB integrity: vascular volume (V vasc) of [14C]sucrose after i.p. injection. Format: in vivo, Swiss mice. To be noted: for Kp at 5 min: Swiss, mouse, brain/blood, ip, 0.31 MBq/kg, 5 min post i.p. injection. As to the method:
(§1) Mice were then decapitated according to selected time points, with blood samples collected following decapitation. The brain was then removed from the skull. For each mouse, the brain hemispheres and two blood samples were weighed in Econo glass vials for liquid scintillation counting (Perkin Elmer). All samples were treated with a tissue solubilizer (Solvable, Perkin Elmer). Blood samples were in addition decolored with 0.2 mL of 30% hydrogen peroxide solution to avoid color quenching issues. After complete tissue sample digestion (24 h in a water bath at 45°C), the vials were cooled and mixed with Ultima‐gold XR (Perkin Elmer). The radioactivity in each vial, expressed in disintegrations per minute (dpm) for ^3H and ^14C, was counted in a Perkin Elmer Tri‐Carb counter.
First, the vascular volume (V vasc, μL/g) was estimated for each mouse as the brain volume of distribution (V d) of [^14C]sucrose:
[^14C]sucrose V d was calculated as the ratio of midbrain to blood carbon‐14 associated radioactivity (dpm/g) measured at 5 min post i.p. injection. Vvasc=Vdsucrose=Xsucrose,brain/Csucrose,blood
Where X sucrose,brain (dpm/g), is the calculated amount of [^14C]sucrose from the brain and C sucrose,blood (dpm/μL) its blood concentration. The data for any animal whose V vasc was an aberrant value was excluded from the study.
The vascular volume based [^14C]sucrose calculation was used as the outcome parameter for BBB integrity. Higher levels in V vasc indicate leakage of [^14C]sucrose into the brain parenchyma because of BBB leakage.

For series [2] the following is noted: Swiss, mouse, in vivo. As to the method: as §1
For [^3H]rosuvastatin, data collection was performed at 5 and 7 min post i.p. injection. […] This avoids quantification bias caused by the formation of possible radiolabelled metabolites.
First, the vascular volume (V vasc, μL/g) was estimated for each mouse as the brain volume of distribution (V d) of [^14C]sucrose: […]

As for `OC[C@H]1O[C@@](CO)(O[C@H]2O[C@H](CO)[C@@H](O)[C@H](O)[C@H]2O)[C@@H](O)[C@@H]1O` [14C-Sucrose, sucrose], the Kp at 5 min in series [1] (mice at P5, brain/blood ratio, read-out: Vv, Mean) was determined as 0.0276; in series [1] (mice at P5, read-out: Vv, Median), 0.0235; in series [1] (mice at P15, brain/blood ratio, read-out: Vv, Mean) it was 0.0272; in series [1] (mice at P15, read-out: Vv, Median), 0.0256; in series [1] (mice at P30, brain/blood ratio, read-out: Vv, Mean), 0.0279; in series [1] (mice at P30, read-out: Vv, Median), 0.0292. The “V vasc, comparison between ages” value in series [1] (mice at P5, P15 and P30) was “did not differ between P5, P15, and P30”.

Turning to `CC(C)c1nc(N(C)S(C)(=O)=O)nc(-c2ccc(F)cc2)c1/C=C/[C@@H](O)C[C@@H](O)CC(=O)O` [3H-Rosuvastatin, rosuvastatin], the “decrease of cerebral (brain) transport at P30 compared to P15” value in series [2] was 6.8 fold.
